The record followed here is US20260022142A1, “MACROCYCLIC IMMUNOMODULATORS” (Bristol-Myers Squibb Company, priority 2022, published 2026).

Bridge positions count the residues as written; N and C are the ends. Square brackets hold non-standard residues; d marks the D form. Peptide text beside a SMILES is read from it. * marks the point of attachment. ξ: configuration not given here. Bip = N[C@@H](Cc1ccc(-c2ccccc2)cc1)C(=O)O; Phe(3-Me) = Cc1cccc(C[C@H](N)C(=O)O)c1; Cha = N[C@@H](CC1CCCCC1)C(=O)O; Cit = NC(=O)NCCC[C@H](N)C(=O)O; NMeN = CN[C@@H](CC(N)=O)C(=O)O; Thr(3ξ) = CC(O)[C@H](N)C(=O)O; Carboxymethyl = O=C(O)C*; Orn = NCCC[C@H](N)C(=O)O; Aun = NCCCCCCCCCCC(=O)O; Dab = NCC[C@H](N)C(=O)O; AEEA = NCCOCCOCC(=O)O

In this assay the target is T1, PD-1/PD-L1 interaction (PE-labeled human PD-L1-Ig binding to Jurkat cell line over-expressing human PD-1) (Homo sapiens, UniProt Q15116).
T1 construct: expressed in transfected cells; host or cells: Jurkat
T1 sequence (Q15116 25-288): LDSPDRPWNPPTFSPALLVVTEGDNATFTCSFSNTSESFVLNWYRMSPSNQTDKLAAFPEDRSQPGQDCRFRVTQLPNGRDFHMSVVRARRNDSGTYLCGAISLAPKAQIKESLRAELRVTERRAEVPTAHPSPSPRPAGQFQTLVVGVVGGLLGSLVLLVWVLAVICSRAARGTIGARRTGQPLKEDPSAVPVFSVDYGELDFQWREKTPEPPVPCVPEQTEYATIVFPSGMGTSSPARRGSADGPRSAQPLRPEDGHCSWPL
The experiment in a line: Jurkat-PD-1 Cell Binding High-Content Screening Assay (CBA). As to conditions: Jurkat cell line over-expressing human PD-1; PE-labeled PD-L1-Ig 20 nM final; read-out: Jurkat hPD1-PDL1 IC50. It counts as cell-based. The essentials:
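Human PD-L1-Ig carrying a covalent PE label on its Ig tag serves as the probe, applied at 20 nM final to compound-treated (2 h, 37° C) Jurkat-hPD-1 cells in medium with 10% fetal calf serum. After one hour, fixation and nuclear staining precede high-content image analysis.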
For orientation: IC50 means the concentration that gives 50% inhibition. As to `CC(=O)NCCCC[C@@H]1NC(=O)[C@H](Cc2ccc(-c3ccccc3)cc2)NC(=O)[C@H](C(C)C)NC(=O)[C@H](Cc2cccc(C)c2)NC(=O)[C@H](CC(=O)O)NC(=O)[C@H](Cc2ccc(OCC(=O)O)cc2)NC(=O)[C@H](C(C)O)NC(=O)CSC[C@@H](C(=O)N[C@H](CC(N)=O)C(=O)NCCCCCCCCCCC(=O)O)NC(=O)[C@H](C(C)O)NC(=O)[C@H](C(C)C)NC(=O)[C@H](CC2CCCCC2)NC(=O)[C@H](CCN)NC(=O)[C@@H](CC(C)C)NC(=O)[C@H](CCCN)NC1=O` (stereo partly drawn) [Compound 3431] ({CH2CO}-[Thr(3ξ)]Y(Carboxymethyl)D[Phe(3-Me)]V[Bip]K(Ac)[Orn][dL][Dab][Cha]V[Thr(3ξ)]C[dN][Aun]-OH; thioether N-14), the IC50 was found to be 4.9 nM.

With `Cc1cccc(C[C@@H]2NC(=O)[C@H](CC(=O)O)NC(=O)[C@H](Cc3ccc(OCC(=O)O)cc3)NC(=O)[C@H](C(C)O)NC(=O)CSC[C@@H](C(=O)N[C@H](CC(N)=O)C(=O)NCCCCCCCCCCC(=O)O)NC(=O)[C@H](CO)NC(=O)[C@H](C(C)C)NC(=O)[C@H](CC3CCCCC3)NC(=O)[C@H](CCN)NC(=O)[C@@H](CC(C)C)NC(=O)[C@H](CCCN)NC(=O)[C@H](Cc3ccc(O)cc3)NC(=O)[C@H](Cc3ccc(-c4ccccc4)cc3)NC(=O)[C@H](C(C)C)NC2=O)c1` (stereo partly drawn) [Compound 3432] ({CH2CO}-[Thr(3ξ)]Y(Carboxymethyl)D[Phe(3-Me)]V[Bip]Y[Orn][dL][Dab][Cha]VSC[dN][Aun]-OH; thioether N-14), the IC50 was found to be 11.4 nM.

In the case of `CC(C)C[C@H]1NC(=O)[C@H](CCCN)NC(=O)[C@H](Cc2ccc(O)cc2)NC(=O)[C@H](Cc2ccc(-c3ccccc3)cc2)NC(=O)[C@H](Cc2ccc(O)cc2)NC(=O)[C@H](Cc2c[nH]c3ccccc23)NC(=O)[C@H](CC(=O)O)NC(=O)[C@H](Cc2ccc(OCC(=O)O)cc2)NC(=O)[C@H](C(C)O)NC(=O)CSC[C@@H](C(=O)N[C@H](CC(N)=O)C(=O)NCCCCCCCCCCC(=O)O)NC(=O)[C@H](CCC(N)=O)NC(=O)[C@H](C(C)C)NC(=O)[C@H](CC2CCCCC2)NC(=O)[C@H](CCN)NC1=O` (stereo partly drawn) [Compound 3433] ({CH2CO}-[Thr(3ξ)]Y(Carboxymethyl)DWY[Bip]Y[Orn][dL][Dab][Cha]VQC[dN][Aun]-OH; thioether N-14), the IC50 was found to be 40.6 nM.

As to `Cc1cccc(C[C@@H]2NC(=O)[C@H](CC(=O)O)NC(=O)[C@H](Cc3ccc(OCC(=O)O)cc3)NC(=O)[C@H](CCCNC(=N)N)NC(=O)CSC[C@@H](C(=O)N[C@H](CC(N)=O)C(=O)NCCCCCCCCCCC(=O)O)NC(=O)[C@H](CCC(N)=O)NC(=O)[C@H](C(C)C)NC(=O)[C@H](CC3CCCCC3)NC(=O)[C@H](CCN)NC(=O)[C@@H](CC(C)C)NC(=O)[C@H](CCCN)NC(=O)[C@H](CCCNC(N)=O)NC(=O)[C@H](Cc3ccc(-c4ccccc4)cc3)NC(=O)[C@H](C(C)C)NC2=O)c1` [Compound 3434] ({CH2CO}-RY(Carboxymethyl)D[Phe(3-Me)]V[Bip][Cit][Orn][dL][Dab][Cha]VQC[dN][Aun]-OH; thioether N-14), the IC50 came to 10.5 nM.

For the molecule `Cc1cccc(C[C@@H]2NC(=O)[C@H](CC(=O)O)NC(=O)[C@H](Cc3ccc(OCC(=O)O)cc3)NC(=O)[C@H](C(C)O)NC(=O)CSC[C@@H](C(=O)N[C@H](CCC(=O)O)C(=O)NCCCCCCCCCCC(=O)O)NC(=O)[C@H](C(C)O)NC(=O)[C@H](C(C)C)NC(=O)[C@H](CC3CCCCC3)NC(=O)[C@H](CCN)NC(=O)[C@@H](CC(C)C)NC(=O)[C@H](CCCN)NC(=O)[C@H](C(C)C)NC(=O)[C@H](Cc3ccc(-c4ccccc4)cc3)NC(=O)[C@H](Cc3ccc(O)cc3)NC2=O)c1` (stereo partly drawn) [Compound 3435] ({CH2CO}-[Thr(3ξ)]Y(Carboxymethyl)D[Phe(3-Me)]Y[Bip]V[Orn][dL][Dab][Cha]V[Thr(3ξ)]C[dE][Aun]-OH; thioether N-14), the IC50 was found to be 12.9 nM.

As for `Cc1cccc(C[C@@H]2NC(=O)[C@H](CC(=O)O)NC(=O)[C@H](Cc3ccc(OCC(=O)O)cc3)NC(=O)[C@H](C(C)O)NC(=O)CSC[C@@H](C(=O)N[C@H](CC(N)=O)C(=O)NCCCCCCCCCCC(=O)O)NC(=O)[C@H](C(C)O)NC(=O)[C@H](C(C)C)NC(=O)[C@H](CC3CCCCC3)NC(=O)[C@H](CCN)NC(=O)[C@@H](CC(C)C)NC(=O)[C@H](CCCN)NC(=O)[C@H](C(C)C)NC(=O)[C@H](Cc3ccc(-c4ccccc4)cc3)NC(=O)[C@H](C(C)C)NC2=O)c1` (stereo partly drawn) [Compound 3436] ({CH2CO}-[Thr(3ξ)]Y(Carboxymethyl)D[Phe(3-Me)]V[Bip]V[Orn][dL][Dab][Cha]V[Thr(3ξ)]C[dN][Aun]-OH; thioether N-14), the IC50 was 17 nM.

As for `CC(=O)NCCCC[C@@H]1NC(=O)[C@H](Cc2ccc(-c3ccccc3)cc2)NC(=O)[C@H](C(C)C)NC(=O)[C@H](Cc2cccc(C)c2)NC(=O)[C@H](CC(=O)O)NC(=O)[C@H](Cc2ccc(OCC(=O)O)cc2)NC(=O)[C@H](C(C)O)NC(=O)CSC[C@@H](C(=O)N[C@H](CC(N)=O)C(=O)NCCCCCCCCCCC(=O)O)NC(=O)[C@H](CCC(N)=O)NC(=O)[C@H](C(C)C)NC(=O)[C@H](CC2CCCCC2)NC(=O)[C@H](CCN)NC(=O)[C@@H](CC(C)C)NC(=O)[C@H](CCCN)NC1=O` (stereo partly drawn) [Compound 3437] ({CH2CO}-[Thr(3ξ)]Y(Carboxymethyl)D[Phe(3-Me)]V[Bip]K(Ac)[Orn][dL][Dab][Cha]VQC[dN][Aun]-OH; thioether N-14), the IC50 stood at 11.2 nM.

For the molecule `CC(C)C[C@H]1NC(=O)[C@H](CCCN)NC(=O)[C@H](C(C)C)NC(=O)[C@H](Cc2ccc(-c3ccccc3)cc2)NC(=O)[C@H](C(C)C)NC(=O)[C@H](Cc2c[nH]c3ccccc23)NC(=O)[C@H](CC(=O)O)NC(=O)[C@H](Cc2ccc(OCC(=O)O)cc2)NC(=O)[C@H](CCCNC(=N)N)NC(=O)CSC[C@@H](C(=O)N(C)[C@@H](CC(N)=O)C(=O)NCCCCCCCCCCC(=O)O)NC(=O)[C@H](CO)NC(=O)[C@H](C(C)C)NC(=O)[C@H](CC2CCCCC2)NC(=O)[C@H](CCN)NC1=O` [Compound 3438] ({CH2CO}-RY(Carboxymethyl)DWV[Bip]V[Orn][dL][Dab][Cha]VSC[NMeN][Aun]-OH; thioether N-14), the IC50 stood at 66.1 nM.

Take `Cc1cccc(C[C@@H]2NC(=O)[C@H](CC(=O)O)NC(=O)[C@H](Cc3ccc(OCC(=O)O)cc3)NC(=O)[C@H](C(C)O)NC(=O)CSC[C@@H](C(=O)N[C@@H](CCN)C(=O)NCCCCCCCCCCC(=O)O)NC(=O)[C@H](C(C)O)NC(=O)[C@H](C(C)C)NC(=O)[C@H](CC3CCCCC3)NC(=O)[C@H](CCN)NC(=O)[C@@H](CC(C)C)NC(=O)[C@H](CCCN)NC(=O)[C@H](CCC(=O)O)NC(=O)[C@H](Cc3ccc(-c4ccccc4)cc3)NC(=O)[C@H](C(C)C)NC2=O)c1` (stereo partly drawn) [Compound 3441] ({CH2CO}-[Thr(3ξ)]Y(Carboxymethyl)D[Phe(3-Me)]V[Bip]E[Orn][dL][Dab][Cha]V[Thr(3ξ)]C[Dab][Aun]-OH; thioether N-14): the IC50 was found to be 39.7 nM.

For `Cc1cccc(C[C@@H]2NC(=O)[C@H](CC(=O)O)NC(=O)[C@H](Cc3ccc(OCC(=O)O)cc3)NC(=O)[C@H](C(C)O)NC(=O)CSC[C@@H](C(=O)NCCOCCOCC(=O)NCCCCCCCCCCC(=O)O)NC(=O)[C@H](C(C)O)NC(=O)[C@H](C(C)C)NC(=O)[C@H](CC3CCCCC3)NC(=O)[C@H](CCN)NC(=O)[C@@H](CC(C)C)NC(=O)[C@H](CCN)NC(=O)[C@H](C(C)C)NC(=O)[C@H](Cc3ccc(-c4ccccc4)cc3)NC(=O)[C@H](C(C)C)NC2=O)c1` (stereo partly drawn) [Compound 3442] ({CH2CO}-[Thr(3ξ)]Y(Carboxymethyl)D[Phe(3-Me)]V[Bip]V[Dab][dL][Dab][Cha]V[Thr(3ξ)]C[AEEA][Aun]-OH; thioether N-14), the IC50 is 16.4 nM.
